EC50, IC50 and AC50 data for six molecules are collected here from ChEMBL document CHEMBL1201862, “PubChem BioAssay data set” (2004).

Assay [1] in a line: Luminescence Cell-Based Dose Confirmation to Identify Activators of 5'UTR Stem-Loop Driven Alpha-Synuclein mRNA Translation in H4 Neuroglioblastoma Cells. [Related pubchem assays: 1829 (Project Summary), 1814 (Primary HTS)]. In kind it is functional.
Another assay has as its target Prothrombin (Bos taurus, UniProt P00735). Put plainly: thrombin protease inhibitors – biochemical, fluorescence polarization, uHTS hits, dose response (AID 602369). In kind it is functional.
The test system of another assay is H4. The experiment in a line: Luminescence Cell-Based Dose Response HTS to Identify Activators of 5'UTR Stem-Loop Driven Prion Protein mRNA Translation in H4 Neuroglioblastoma Cells. [Related pubchem assays: 1829 (Project Summary), 1814 (Primary HTS)]. Format: functional. As to conditions: Homo sapiens.
A short description of assay [2]: Luminescence Cell-Based Dose Response to Identify Activators of 5'UTR Stem-Loop Driven Prion Protein mRNA Translation in H4-C Neuroglioblastoma Cells. [Related pubchem assays: 1829 (Project Summary), 1814 (Primary HTS)]. In kind it is functional.
Assay [3] deals with 72 kDa type IV collagenase (Homo sapiens, UniProt P08253). The experiment in a line: Dose Response validation of uHTS RPN11 inhibitor hits using a MMP-2 Fluorescence assay. In kind it is functional.
In assay [4] the target is 26S proteasome non-ATPase regulatory subunit 14 (Homo sapiens, UniProt O00487). Put plainly: inhibition of proteasome subunit RPN11 – biochemical, fluorescence polarization, uHTS hits, confirmation (AID 602368). In kind it is functional.
Assay [5] in a line: Luminescence Cell-Based Dose Response HTS to Identify Activators of Luciferase Translation or Activity in H4 […] Cells. [Related pubchem assays: 1829 (Project Summary), 1814 (Primary HTS)]. In kind it is functional.
Assay [6] in a line: Luminescence Cell-Based Dose Response to Identify Activators of Luciferase Translation or Activity in H4-C Neuroglioblastoma Cells. [Related pubchem assays: 1829 (Project Summary), 1814 (Primary HTS)]. In kind it is functional.
Assay [7] can be described thus: growth inhibition of yeast DHODH-expressing 3D7 parasites – SYBR Green, dry powder samples, dose response (AID 1159570).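 Also: parasite growth measured after 72 hours of compound exposure.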 In kind it is functional, cell-based.
Assay [8] can be described thus: toxicity to human hepatoma HepG2 cells – cell-based, cherry-picked samples, cytotoxicity control, dose response (AID 1159577). In kind it is functional.
Assay [9] in a line: PAX8-dependent cell viability loss – plate reader, dry powder, dose response (AID 743049). In kind it is functional, cell-based.
The next assay addresses Paired box protein Pax-8 (Homo sapiens, UniProt Q06710). Put plainly: PAX8 transcriptional activity inhibition in RMG-I – RMG-I cells, luciferase, cherry-pick, dose response (AID 687027).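 Also: luciferase reporter driven by Pax8 target thyroperoxidase promoter measured by SteadyGlo luminescence.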 Format: functional, cell-based.
Assay [10] is described as follows: COV434 cell viability loss – plate reader, dry powder, SA7, cytotoxicity control for PAX8 inhibitor project, dose response (AID 743145). In kind it is functional, cell-based.
Assay [11] is described as follows: inhibitors acting on PAX2 in cells – cell-based, plate reader, dry powder samples, selectivity assay for PAX8 inhibitor project, dose response (AID 743048).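 Also: HEK293 cells carrying a WT1 promoter luciferase reporter driven by expressed Pax2; potency is for inhibition of Pax2 driven reporter signal.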 In kind it is functional.
Assay [12] in a line: blockers of HIV-1 ZM109 envelope-driven cell-cell fusion – HeLa effector, CEM target cells, luciferase, cherry-pick, dose response (AID 652058).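 Also: luciferase signal from HIV-1 Env mediated cell-cell fusion of effector and target cells.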 In kind it is functional, cell-based.
Assay [13] is described as follows: Dd2 malaria parasite growth inhibition potency – SYBR Green, dry powder samples, dose response (AID 1159566).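 Also: potency for growth inhibition with lower SYBR green DNA signal.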 In kind it is functional, cell-based.
Assay [14] is described as follows: HIV-1 AD8 envelope cell-cell fusion blockers – cherry-pick, dose response (AID 652062).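 Also: luciferase signal from cell-cell fusion driven by HIV-1 clade B AD8 Env; potency is for inhibitors of fusion seen as a drop in luminescence.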 In kind it is functional, cell-based.
Assay [15] is described as follows: PAX5 cellular inhibition readout – cell-based, plate reader, dry powder samples, selectivity assay for PAX8 inhibitor project, dose response (AID 743047).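 Also: HEK293 cells carrying a Pax5 driven CD19 promoter luciferase reporter; potency of inhibitors that lower reporter luminescence.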 Format: functional.
A short description of assay [16]: blockers of HIV-1 envelope-mediated cell-cell fusion – cherry-pick, dose response (AID 652057). Format: functional, cell-based.
Assay [17] can be described thus: growth inhibition of PfATP4-mutant resistant parasites – NITD609-resistant line, SYBR Green, dry powder, dose response (AID 1159571).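 Also: parasites synchronized at ring stage by sorbitol before testing.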 Format: functional, cell-based.
Assay [18] is described as follows: OVCAR4 cell viability loss – plate reader, dry powder, SA11, cytotoxicity control for PAX8 inhibitor project, dose response (AID 743150). Format: functional, cell-based. As to conditions: OVCAR-4.
A short description of assay [19]: P. falciparum Dd2 growth inhibitors, dose response, SYBR Green, cherry-picked samples (AID 1159567). In kind it is functional, cell-based.
The next assay concerns the target T1, Cytochrome P450 1A2 (Homo sapiens, UniProt P05177).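 Also: PubChem cytochrome P450 panel assay, CYP1A2 panel member.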
T1 sequence (P05177 whole entry): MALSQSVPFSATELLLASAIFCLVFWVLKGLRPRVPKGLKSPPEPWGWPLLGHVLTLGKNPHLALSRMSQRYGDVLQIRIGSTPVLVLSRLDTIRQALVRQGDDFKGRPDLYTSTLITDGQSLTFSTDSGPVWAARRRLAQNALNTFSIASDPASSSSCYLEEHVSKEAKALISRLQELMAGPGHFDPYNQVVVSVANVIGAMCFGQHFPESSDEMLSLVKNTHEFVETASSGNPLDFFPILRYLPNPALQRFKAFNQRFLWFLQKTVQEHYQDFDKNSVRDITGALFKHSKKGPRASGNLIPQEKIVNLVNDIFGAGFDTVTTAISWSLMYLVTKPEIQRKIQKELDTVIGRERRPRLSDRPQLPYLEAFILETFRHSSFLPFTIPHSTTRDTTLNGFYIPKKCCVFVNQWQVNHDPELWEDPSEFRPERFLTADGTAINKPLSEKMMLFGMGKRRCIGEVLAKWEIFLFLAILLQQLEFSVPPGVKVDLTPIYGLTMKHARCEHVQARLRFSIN

In assay [20] the target is Mitogen-activated protein kinase 10 (Homo sapiens, UniProt P53779). The experiment in a line: Dose response biochemical screening assay for inhibitors of c-Jun N-Terminal Kinase 3 (JNK3). [Related pubchem assays: 746 ].
For another assay, the target named is Cytochrome P450 2C19 (Homo sapiens, UniProt P33261). The experiment in a line: Cytochrome panel assay with activity outcomes. Panel member name: p450-cyp2c19 Compounds with AC50 equal or less than 10 uM are considered active. In kind it is functional. As to conditions: read-out: AC50.
Assay [21] can be described thus: cytotoxicity toward HCT116 cells – cell-based, CellTiter-Glo luminescence, IC50, dose response (AID 1117332). As to conditions: HCT-116. In kind it is functional.
Assay [22] in a line: Reduced DLD-1 viability, concentration-response, CellTiter-Glo luminescence (AID 1117352). In kind it is functional.
A short description of assay [23]: RKO cell viability reduction, dose response, CellTiter-Glo luminescence (AID 1117322). Format: functional.
Assay [24] can be described thus: CellTiter-Glo luminescence survival assay, SW480 colon tumor line, concentration-response curve, half-maximal inhibitory concentration (AID 1117338). Format: functional.
Assay [25] can be described thus: cytotoxicity toward HT-29 cells – cell-based, CellTiter-Glo luminescence, IC50, dose response (AID 1117330). Format: functional.
The nature of assay [26]: HCT116 cell viability decrease, GSK3B pretreatment – CellTiter-Glo, IC50, dose response (AID 1117339). As to conditions: HCT-116. Format: functional.
Assay [27] is described as follows: cytotoxicity toward Colo320 cells – cell-based, CellTiter-Glo luminescence, IC50, dose response (AID 1117334). Format: functional. To be noted: COLO 320.
A short description of assay [28]: SNU-C1 cell viability reduction, dose response, CellTiter-Glo luminescence (AID 1117323). Format: functional, cell-based.
Assay [29] has as its target T2, Ubiquitin-conjugating enzyme E2 N (Homo sapiens, UniProt P61088).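 Also: Dose-response confirmation in a TR-FRET assay detecting UBC13-driven polyubiquitin chain formation, inhibition measured.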
T2 sequence (P61088 whole entry): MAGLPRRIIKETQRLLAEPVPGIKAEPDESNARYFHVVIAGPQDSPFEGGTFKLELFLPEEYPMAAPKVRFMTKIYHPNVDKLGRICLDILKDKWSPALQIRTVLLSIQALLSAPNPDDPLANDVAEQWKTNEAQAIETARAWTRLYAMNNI
In kind it is functional.

Calls of active or inactive are those of the source.

Chain of Mitogen-activated protein kinase 10 (P53779 whole entry): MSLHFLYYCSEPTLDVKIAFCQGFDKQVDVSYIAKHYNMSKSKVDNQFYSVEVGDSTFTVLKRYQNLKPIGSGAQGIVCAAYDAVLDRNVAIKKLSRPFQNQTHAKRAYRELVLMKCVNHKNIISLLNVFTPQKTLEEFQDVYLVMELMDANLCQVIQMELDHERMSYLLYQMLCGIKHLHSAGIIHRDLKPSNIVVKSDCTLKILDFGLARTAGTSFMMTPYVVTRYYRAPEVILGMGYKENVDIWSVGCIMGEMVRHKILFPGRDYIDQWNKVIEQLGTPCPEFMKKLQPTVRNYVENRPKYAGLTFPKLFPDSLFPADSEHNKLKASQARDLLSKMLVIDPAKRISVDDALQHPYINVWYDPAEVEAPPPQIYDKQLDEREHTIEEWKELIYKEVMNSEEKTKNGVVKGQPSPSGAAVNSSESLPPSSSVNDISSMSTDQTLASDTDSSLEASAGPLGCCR
Chain of Paired box protein Pax-8 (Q06710 whole entry): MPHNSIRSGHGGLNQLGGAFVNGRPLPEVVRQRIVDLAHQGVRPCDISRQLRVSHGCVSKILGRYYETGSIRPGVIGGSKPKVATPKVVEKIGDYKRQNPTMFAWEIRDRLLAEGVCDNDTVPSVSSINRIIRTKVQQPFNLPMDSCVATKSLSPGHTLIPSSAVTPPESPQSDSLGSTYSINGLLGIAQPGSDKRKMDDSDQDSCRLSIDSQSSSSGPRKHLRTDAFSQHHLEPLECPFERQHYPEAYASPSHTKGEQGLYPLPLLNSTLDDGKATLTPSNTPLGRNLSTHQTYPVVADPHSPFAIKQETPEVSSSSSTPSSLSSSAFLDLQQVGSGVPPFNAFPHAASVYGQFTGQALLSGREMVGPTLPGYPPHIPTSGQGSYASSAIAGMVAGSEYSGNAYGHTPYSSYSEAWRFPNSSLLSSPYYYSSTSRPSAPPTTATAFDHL
Chain of Cytochrome P450 2C19 (P33261 whole entry): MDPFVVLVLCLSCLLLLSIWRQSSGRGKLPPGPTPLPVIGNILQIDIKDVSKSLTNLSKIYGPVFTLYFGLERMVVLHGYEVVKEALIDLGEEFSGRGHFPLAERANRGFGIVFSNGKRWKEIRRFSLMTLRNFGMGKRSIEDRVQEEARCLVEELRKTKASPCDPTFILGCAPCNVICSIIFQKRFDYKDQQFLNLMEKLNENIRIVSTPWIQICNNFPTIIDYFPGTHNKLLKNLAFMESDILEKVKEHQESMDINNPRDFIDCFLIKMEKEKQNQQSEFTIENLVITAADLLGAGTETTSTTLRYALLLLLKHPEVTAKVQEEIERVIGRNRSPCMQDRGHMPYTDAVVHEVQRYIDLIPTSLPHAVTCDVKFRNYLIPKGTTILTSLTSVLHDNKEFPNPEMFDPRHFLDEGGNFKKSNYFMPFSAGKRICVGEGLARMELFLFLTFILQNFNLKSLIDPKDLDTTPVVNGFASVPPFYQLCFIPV
Chain of 72 kDa type IV collagenase (P08253 whole entry): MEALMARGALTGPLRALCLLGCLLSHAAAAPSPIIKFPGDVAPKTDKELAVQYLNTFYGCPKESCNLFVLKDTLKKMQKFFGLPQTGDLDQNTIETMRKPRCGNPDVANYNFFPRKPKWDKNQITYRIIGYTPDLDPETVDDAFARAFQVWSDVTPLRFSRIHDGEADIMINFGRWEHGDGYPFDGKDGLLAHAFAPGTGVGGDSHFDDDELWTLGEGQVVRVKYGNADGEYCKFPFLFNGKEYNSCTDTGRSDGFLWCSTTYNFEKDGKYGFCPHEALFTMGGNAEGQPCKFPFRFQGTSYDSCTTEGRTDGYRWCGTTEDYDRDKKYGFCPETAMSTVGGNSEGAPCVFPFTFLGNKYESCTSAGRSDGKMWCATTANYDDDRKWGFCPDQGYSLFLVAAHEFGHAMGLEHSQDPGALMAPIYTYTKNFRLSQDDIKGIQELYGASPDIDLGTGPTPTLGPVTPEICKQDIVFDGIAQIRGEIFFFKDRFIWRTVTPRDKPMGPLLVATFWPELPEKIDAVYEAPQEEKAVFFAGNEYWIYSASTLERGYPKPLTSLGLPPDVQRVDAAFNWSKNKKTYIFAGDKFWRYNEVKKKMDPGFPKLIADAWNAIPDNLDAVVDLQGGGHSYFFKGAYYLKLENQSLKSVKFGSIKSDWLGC
Chain of 26S proteasome non-ATPase regulatory subunit 14 (O00487 whole entry): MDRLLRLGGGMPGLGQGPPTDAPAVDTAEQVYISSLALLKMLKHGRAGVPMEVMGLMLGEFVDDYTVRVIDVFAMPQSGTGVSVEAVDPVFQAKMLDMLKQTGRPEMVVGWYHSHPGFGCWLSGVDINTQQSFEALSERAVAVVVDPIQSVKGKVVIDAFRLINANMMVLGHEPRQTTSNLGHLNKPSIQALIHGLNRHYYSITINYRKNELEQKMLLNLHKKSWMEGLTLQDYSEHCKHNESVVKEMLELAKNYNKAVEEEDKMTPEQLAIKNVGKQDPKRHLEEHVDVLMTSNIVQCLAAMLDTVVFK

`COC(=O)c1c(-c2cccnc2)csc1NC(=O)c1cc(C)on1`: the EC50 in [1] is 0.435 µM (active); with H4 it was 19.9 µM (inconclusive); in assay [2] it was 0.321 µM (active); in [5], < 0.1 µM (inconclusive); in assay [6], 0.387 µM (active). Also, the IC50 was 48.3 µM (active) at Prothrombin, > 100 µM (inactive) in assay [3] and 29.6 µM (active) in assay [4].

On to `COc1cccc(C#Cc2ccc([C@H]3[C@@H](CO)N(C(=O)C4CCCC4)[C@H]3C#N)cc2)c1`, for which the AC50 is 0.409 µM (active) in assay [7]; > 39 µM (inactive) in assay [8]; 5.77 µM (active) in [9]; 3.15 µM (active) at Paired box protein Pax-8; 0.00447 µM (active) in [10]; 30.8 µM (active) in assay [11]. The AC50 in assay [12] was 17 µM (active); in assay [13], 0.212 µM (active); in [14], 20 µM (active); in assay [15], 30.1 µM (active); in assay [16], 17.8 µM (active); in assay [17] it was 0.454 µM (active). Also, the AC50 in [18] is 37.9 µM (active); in assay [19], 0.997 µM (active).

`Cc1cc(C(F)F)n2ncc(C(=O)NCc3ccccc3C(F)(F)F)c2n1`: the AC50 was 0.708 µM (inconclusive) at Cytochrome P450 1A2 and 6.31 µM (inconclusive) on Cytochrome P450 2C19. The IC50 in assay [20] is reported as 26.2 µM (not active).

As to `O=C1c2ccccc2C(=O)C1C(=O)C(c1ccccc1)c1ccccc1` [DIPHENADIONE], the half-inhibitory concentration (IC50) was 0.531 µM (active) in [21]; 1.33 µM (active) in assay [22]; 1.59 µM (active) in assay [23]; 0.536 µM (active) in [24]; 4.48 µM (active) in [25]; 0.567 µM (active) in assay [26]. The IC50 is 0.621 µM (active) in [27] and 4.01 µM (active) in assay [28].

In the case of `CCOC(=O)CSc1nc2ccccc2c(=O)n1CCCCCC(=O)NCc1ccco1`, the IC50 in assay [29] is > 20 µM (inactive); in assay [20], 43.3 µM (not active).

Regarding `Cc1ccc(C(=O)c2cc(O)c(O)c([N+](=O)[O-])c2)cc1` [TOLCAPONE], the IC50 in [21] is 2.29 µM (active); in [22], 6.14 µM (inactive); in assay [23], 1.88 µM (active); in [24] it was 4.64 µM (active); in assay [25] it was > 20 µM (inactive); in assay [26], 0.265 µM (active). The IC50 in assay [27] is 2.5 µM (active); in assay [28], 4.54 µM (active).
